The values below come from patent US8450243B2, “Herbicidal quinoline and 1,8-naphthyridine compounds” (Syngenta Limited, priority 2009, dated 2013).

Holding throughout (type): in vivo
Test [1] deals with Setaria faberi (SETFA). The test can be described thus: Herbicidal glasshouse test, post-emergence. The following applies: POST Application, evaluated after 13 days; for pest or weed control at 250 g/ha: Setaria faberi, post-emergence, 312 h, read-out: damage to plant (100=total damage to plant; 0=no damage to plant); for damage to plant (100=total damage to plant; 0=no damage to plant): 250 g/ha. The protocol:
(§1) Seeds of a variety of test species were sown in standard soil in pots (Alopecurus myosuroides (ALOMY), Setaria faberi (SETFA), Echinochloa crus-galli (ECHCG), Abuthilon theophrasti (ABUTH) and Amaranthus retoflexus (AMARE)). After cultivation for one day (pre-emergence) or after 8 days cultivation (post-emergence) under controlled conditions in a glasshouse (at 24/16° C., day/night; 14 hours light; 65% humidity), the plants were sprayed with an aqueous spray solution derived from the formulation of the technical active ingredient in acetone/water (50:50) solution containing 0.5% Tween 20 (polyoxyethelyene sorbitan monolaurate, CAS RN 9005-64-5). Compounds were applied at 250 g/ha. The test plants were then grown in a glasshouse under controlled conditions in a glasshouse (at 24/16° C., day/night; 14 hours light; 65% humidity) and watered twice daily. After 13 days for pre and post-emergence, the test was evaluated (100=total damage to plant; 0=no damage to plant).

Test [2] deals with Alopecurus myosuroides (ALOMY). The test can be described thus: Herbicidal glasshouse test, post-emergence. The following applies: POST Application, evaluated after 13 days; for pest or weed control at 250 g/ha: Alopecurus myosuroides, post-emergence, 312 h, read-out: damage to plant (100=total damage to plant; 0=no damage to plant); for damage to plant (100=total damage to plant; 0=no damage to plant): 250 g/ha. The protocol:
as §1

Test [3] has as its system Echinochloa crus-galli (ECHCG). The test can be described thus: Herbicidal glasshouse test, post-emergence. The following applies: POST Application, evaluated after 13 days; for pest or weed control at 250 g/ha: Echinochloa crus-galli, post-emergence, 312 h, read-out: damage to plant (100=total damage to plant; 0=no damage to plant); for damage to plant (100=total damage to plant; 0=no damage to plant): 250 g/ha. The protocol: as §1

Test [4] relates to Abuthilon theophrasti (ABUTH). Kind of test: Herbicidal glasshouse test, post-emergence. The following applies: POST Application, evaluated after 13 days; for pest or weed control at 250 g/ha: Abutilon theophrasti, post-emergence, 312 h, read-out: damage to plant (100=total damage to plant; 0=no damage to plant); for damage to plant (100=total damage to plant; 0=no damage to plant): 250 g/ha. The protocol: as §1

Test [5] concerns Amaranthus retoflexus (AMARE). The test can be described thus: Herbicidal glasshouse test, post-emergence. The following applies: POST Application, evaluated after 13 days; for pest or weed control at 250 g/ha: Amaranthus retroflexus, post-emergence, 312 h, read-out: damage to plant (100=total damage to plant; 0=no damage to plant); for damage to plant (100=total damage to plant; 0=no damage to plant): 250 g/ha. The protocol: as §1

The test system of test [6] is Setaria faberi (SETFA). Kind of test: Herbicidal glasshouse test, pre-emergence. The following applies: PRE Application, evaluated after 13 days; for pest or weed control at 250 g/ha: Setaria faberi, pre-emergence, 312 h, read-out: damage to plant (100=total damage to plant; 0=no damage to plant); for damage to plant (100=total damage to plant; 0=no damage to plant): 250 g/ha. The protocol:
as §1

Test [7] concerns Alopecurus myosuroides (ALOMY). Kind of test: Herbicidal glasshouse test, pre-emergence. The following applies: PRE Application, evaluated after 13 days; for pest or weed control at 250 g/ha: Alopecurus myosuroides, pre-emergence, 312 h, read-out: damage to plant (100=total damage to plant; 0=no damage to plant); for damage to plant (100=total damage to plant; 0=no damage to plant): 250 g/ha. The protocol:
as §1

Test [8] deals with Echinochloa crus-galli (ECHCG). The test can be described thus: Herbicidal glasshouse test, pre-emergence. The following applies: PRE Application, evaluated after 13 days; for pest or weed control at 250 g/ha: Echinochloa crus-galli, pre-emergence, 312 h, read-out: damage to plant (100=total damage to plant; 0=no damage to plant); for damage to plant (100=total damage to plant; 0=no damage to plant): 250 g/ha. The protocol:
as §1

Test [9] has as its system Abuthilon theophrasti (ABUTH). Kind of test: Herbicidal glasshouse test, pre-emergence. The following applies: PRE Application, evaluated after 13 days; for pest or weed control at 250 g/ha: Abutilon theophrasti, pre-emergence, 312 h, read-out: damage to plant (100=total damage to plant; 0=no damage to plant); for damage to plant (100=total damage to plant; 0=no damage to plant): 250 g/ha. The protocol: as §1

Test [10] concerns Amaranthus retoflexus (AMARE). Kind of test: Herbicidal glasshouse test, pre-emergence. The settings on record: PRE Application, evaluated after 13 days; for pest or weed control at 250 g/ha: Amaranthus retroflexus, pre-emergence, 312 h, read-out: damage to plant (100=total damage to plant; 0=no damage to plant); for damage to plant (100=total damage to plant; 0=no damage to plant): 250 g/ha. The protocol:
as §1

On to `Cc1ccc2cc(C(=O)C3C(=O)CCCC3=O)c(=O)n(C)c2n1` [Compound 1.2, 2-(1,7-Dimethyl-2-oxo-1,2-dihydro[1,8]-naphthyridine-3-carbonyl)-cyclohexane-1,3-dione], for which the pest or weed control at 250 g/ha worked out at 80% in the test on Setaria faberi (SETFA) [1]; 40% in [2]; 80% in [3]; 80% in test [4]; 80% in test [5]; 70% in the test on Setaria faberi (SETFA) [6]. Moreover, the pest or weed control at 250 g/ha in test [7] was determined as 20%; in test [8], 90%; in [9], 70%; in [10] it was 40%.

In the case of `Cn1c(=O)c(C(=O)C2C(=O)CCCC2=O)cc2cccnc21` [Compound 1.29], the pest or weed control at 250 g/ha was 90% in the test with Setaria faberi (SETFA) [1]; 30% in test [2]; 80% in test [3]; 90% in test [4]; 90% in test [5]; 10% in the test on Setaria faberi (SETFA) [6]. The pest or weed control at 250 g/ha in test [7] came to 30%; in test [8] it was 100%; in test [9], 90%; in [10], 100%.

Consider `Cc1cc(C)c2cc(C(=O)C3C(=O)CCCC3=O)c(=O)n(C)c2n1` [Compound 1.42], for which the pest or weed control at 250 g/ha with Setaria faberi (SETFA) [1] came out at 60%; in test [2], 0%; in test [3], 70%; in test [4] it was 50%; in [5], 70%; in the test on Setaria faberi (SETFA) [6], 0%. The pest or weed control at 250 g/ha in [7], in [8], in test [9] and in [10] was 0% in each case.

Turning to `COCn1c(=O)c(C(=O)C2C(=O)CCCC2=O)cc2cc(F)cnc21` [Compound 1.43], the pest or weed control at 250 g/ha with Setaria faberi (SETFA) [1] is 80%; in [2], 60%; in [3], 80%; in [4], 80%; in test [5] it was 80%; in the test with Setaria faberi (SETFA) [6], 100%. Moreover, the pest or weed control at 250 g/ha in test [7] is 40%; in test [8], 100%; in test [9] it was 100%; in [10], 100%.

Take `COCCn1c(=O)c(C(=O)C2C(=O)CCCC2=O)cc2cc(F)cnc21` [Compound 1.44]: the pest or weed control at 250 g/ha came out at 80% with Setaria faberi (SETFA) [1]; 80% in test [2]; 80% in test [3]; 90% in [4]; 80% in [5]; 100% in the test with Setaria faberi (SETFA) [6]. In addition, the pest or weed control at 250 g/ha was 90% in test [7], 100% in test [8], 90% in test [9] and 100% in test [10].

As for `O=C1CCCC(=O)C1C(=O)c1cc2cc(F)cnc2n(CC(F)F)c1=O` [Compound 1.45], the “damage to plant (100=total damage to plant; 0=no damage to plant)” value in the test on Setaria faberi (SETFA) [1] came out at 80; in test [2] it was 60; in test [3], 80; in test [4], 80; in test [5], 80; in the test with Setaria faberi (SETFA) [6] it was 80. Besides, the “damage to plant (100=total damage to plant; 0=no damage to plant)” value in [7] came out at 70; in test [8] it was 100; in [9], 100; in test [10], 100.

With `COCn1c(=O)c(C(=O)C2C(=O)CCCC2=O)cc2cc(F)c(C)nc21` [Compound 1.46], the pest or weed control at 250 g/ha came out at 70% with Setaria faberi (SETFA) [1]; 70% in [2]; 80% in test [3]; 100% in test [4]; 70% in [5]; 80% in the test with Setaria faberi (SETFA) [6]. Further, the pest or weed control at 250 g/ha is 60% in [7], 100% in [8], 80% in test [9] and 100% in test [10].

As for `COCCn1c(=O)c(C(=O)C2C(=O)CCCC2=O)cc2cc(F)c(C)nc21` [Compound 1.47], the pest or weed control at 250 g/ha in the test on Setaria faberi (SETFA) [1] worked out at 80%; in test [2], 80%; in test [3] it was 90%; in [4] it was 70%; in test [5], 70%; in the test with Setaria faberi (SETFA) [6] it was 90%. Moreover, the pest or weed control at 250 g/ha came to 50% in test [7], 90% in test [8], 90% in test [9] and 100% in [10].

Turning to `O=C1CCCC(=O)C1C(=O)c1cc2cc(F)cnc2n(CCC=C(F)F)c1=O` [Compound 1.48], the “damage to plant (100=total damage to plant; 0=no damage to plant)” value in the test on Setaria faberi (SETFA) [1] amounted to 80; in test [2], 70; in test [3], 80; in test [4] it was 80; in [5], 40; in the test with Setaria faberi (SETFA) [6], 90. In addition, the “damage to plant (100=total damage to plant; 0=no damage to plant)” value in test [7] is 80; in test [8] it was 100; in test [9], 90; in [10] it was 100.

Take `CCn1c(=O)c(C(=O)C2C(=O)CCCC2=O)cc2cc(F)cnc21` [Compound 1.49]: the pest or weed control at 250 g/ha is 70% in the test on Setaria faberi (SETFA) [1]; 70% in test [2]; 80% in test [3]; 80% in test [4]; 70% in test [5]; 90% in the test with Setaria faberi (SETFA) [6]. In addition, the pest or weed control at 250 g/ha is 60% in test [7], 100% in test [8], 90% in test [9] and 100% in test [10].

In the case of `CCCn1c(=O)c(C(=O)C2C(=O)CCCC2=O)cc2cc(F)cnc21` [Compound 1.50], the pest or weed control at 250 g/ha was 80% in the test with Setaria faberi (SETFA) [1]; 70% in [2]; 80% in [3]; 80% in test [4]; 70% in test [5]; 100% with Setaria faberi (SETFA) [6]. The pest or weed control at 250 g/ha in test [7] was 80%; in [8], 100%; in [9], 90%; in test [10], 90%.

As for `Cn1c(=O)c(C(=O)C2C(=O)CCCC2=O)cc2ccc(Br)cc21` [Compound 3.42], the pest or weed control at 250 g/ha with Setaria faberi (SETFA) [1] was determined as 70%; in test [2], 20%; in test [3], 80%; in [4], 90%; in [5], 80%; in the test on Setaria faberi (SETFA) [6] it was 0%. Moreover, the pest or weed control at 250 g/ha in [7] came out at 10%; in test [8] it was 70%; in test [9] it was 50%; in test [10] it was 80%.
